“And” between values parts separate entries of the source, which are not always exact repeats. Equal values may be shown once. Read-outs that look alike come from different tables or passages of the source.
Tests used:
[1] = system: heat shock regulon gene fusions; assay: Stress response of heat shock regulon luxCDABE gene fusions (ethanol); type: cell-based, E. coli; settings: for 3% Ethanol Response ratio: 40 minutes, LB, treated/untreated
Method: To test the stress responses, one or two single colonies of each selected strain were used to inoculate 5.0 ml of LB medium containing 150 μg/ml of ampicillin. These cultures were grown overnight at 37° C. then diluted by adding 50 μl or 100 μl of the overnight culture into 10.0 ml of fresh LB medium (without ampicillin) and grown with agitation at 37° C. until the culture was in exponential phase with readings on a Klett-Summerson colorimeter containing the red filter of between 10 and 40. These actively growing cultures were immediately used to initiate a stress response experiment by adding 50 μl of cultures to 50 μl of LB medium containing various concentrations of chemical in the wells a 96 well luminometer plate. This division of the actively growing culture at the time of chemical addition ensured identical populations were present when the stress was imposed. Light production was measured in a Dynex ML3000 luminometer at 37° C. The dimensionless units of light production, relative light units (RLU), are obtained by comparison with the light reading from an internal light-emitting diode. The cycle mode of the ML3000 luminometer, similar to previous descriptions (Van Dyk et al., Appl. Environ. Microbiol. 60:1414-120) was used. […]

[2] = system: clpB-luxCDABE gene fusion; settings: 38 min; for Response Ratio: 4% ethanol; for Light production in LB + 4% ethanol: 37° C.
Method: Plasmid DNA was isolated from lux-a.pk043.d3, digested with restriction enzyme XmaI, and ligated with T4 DNA ligase. The ligation reaction was used to transform E. coli strain DPD1675 by electroporation. Transformants were selected by ampicillin resistance. […] Actively growing cultures at 37° C. in LB medium were treated with 4% ethanol arid light production was quantitated at 37° C. using a microplate luminometer (Dynex ML3000). Table 17 summarizes the average bioluminescence of duplicate samples at 38 min after treatment.

SOS regulon gene fusions = assay: Stress response of SOS regulon luxCDABE gene fusions (nalidixic acid); type: cell-based, E. coli; settings: SOS regulon gene fusions; 5, 4, or 3% (v/v) ethanol
Method: (§1) To test the stress responses, one or two single colonies of each selected strain were used to inoculate 5.0 ml of LB medium containing 150 μg/ml of ampicillin. These cultures were grown overnight at 37° C. then diluted by adding 50 μl or 100 μl of the overnight culture into 10.0 ml of fresh LB medium (without ampicillin) and grown with agitation at 37° C. until the culture was in exponential phase with readings on a Klett-Summerson colorimeter containing the red filter of between 10 and 40. These actively growing cultures were immediately used to initiate a stress response experiment by adding 50 μl of cultures to 50 μl of LB medium containing various concentrations of chemical in the wells a 96 well luminometer plate. This division of the actively growing culture at the time of chemical addition ensured identical populations were present when the stress was imposed. Light production was measured in a Dynex ML3000 luminometer at 37° C. The dimensionless units of light production, relative light units (RLU), are obtained by comparison with the light reading from an internal light-emitting diode. The cycle mode of the ML3000 luminometer, similar to previous descriptions (Van Dyk et al., Appl. Environ. Microbiol. 60:1414-120) was used.
The ability of these promoter-luxCDABE fusions to report activation of the SOS stress response was tested using nalidixic acid, a known, potent chemical inducer. The final concentrations of nalidixic acid were 1, 5, 25, and 125 μg/ml for all but strain DPD2293, which was tested at 80, 40, 20, 10, 5, 2.5, and 1.25 μg/ml.
Specificity of responses was tested by measuring the effect of ethanol on these SOS regulon gene fusions.

[3] = system: luxCDABE gene fusions in lexA+ host; assay: Mitomycin C and nalidixic acid responses in lexA+ host; type: cell-based, E. coli; settings: for MitC Ratio, 2 hr 250 ng/ml: lexA+ host
Method: (§2) In addition, the effect of a lexAind mutation was tested to determine if any of these were part of the SOS regulon. The expectation is that SOS regulon member will be induced by both nalidixic acid and mitomycin C in a manner that is dependent on lexA function (Walker, G. C., (1996) Escherichia coli and Salmonella: Cellular and Molecular Biology ASM Press). […] This is consistent with the observation of upregulation of the b1728 mRNA transcript upon mitomycin C treatment in a LexA dependent fashion (Fernández de Henestrosa et al. (2000). Mol. Microbiol. 35:1560-1572). Likewise, two Gene fusions, those to oraA and yigN were identified is new members of the SOS regulon (Table 16). […] Negative, non-DNA damage responsive gene fusions were also included (Table 16).

[4] = system: luxCDABE gene fusions in lexAind host; assay: Mitomycin C and nalidixic acid responses in lexAind host; type: cell-based, E. coli; settings: for MitC Ratio, 2 hr 250 ng/ml: lexAind host
Method: as §2

[5] = system: luxCDABE gene fusions of the Lux-A Collection; assay: Induction of Lux-A Collection gene fusions by MMC (and yebF fusion by nalidixic acid); type: cell-based, E. coli
Method: The Lux-A Collection of reporter gene fusions was examined for presence of fusions to the genes in Table 11. […] Each of these was tested for induction by MMC at several doses over a time course of 100 minutes.
As expected, the expression of the known SOS genes was elevated; however the expression of several was elevated less than 2-fold (Table 12) and as such were within a large group of 792 genes the expression of which was elevated by 20% or more. Most of these are likely due to artifacts in the array data rather than to actual biologically relevant responses. To test if strains carrying luxCDABE gene fusions would yield the expected positive result, the three gene fusions that were available in the Lux-A Collection of reporter gene fusions were tested for mitomycin C responses.
In this case, a divergent promoter to the purT gene was present in the chromosomal fragment and strains containing the backward yebF fusion produced light. […] […] The orientation of the inserted segment to yield a fusion of yebF to the luxCDABE operon was confirmed by DNA sequence analysis.

[6] = system: SoxR/S regulon gene fusions; assay: Stress response of SoxR/S regulon luxCDABE gene fusions (methyl viologen); type: cell-based, E. coli; settings: for Methyl viologen response ratio: 250 μg/ml, 120 minutes, LB, treated/untreated
Method: Like the SOS and heat shock regulon fusions, these had basal light production greater than the promoterless parental plasmid indicating the presence of a promoter. Responsiveness of four of these strains to a known inducer of the SoxR/S regulon, methyl viologen, was tested at 1000, 500, 250, 125, 62, 31 and 16 μg/ml. […] Table 8 gives the response ratio for 250 μg/ml at 120 minutes of treatment for the four tested strains. Here again, the biologically appropriate response was observed.

[7] = system: OxyR regulon gene fusions (ahpC-luxCDABE); settings: for H2O2 response ratio: ahpC fusion, 0.002% hydrogen peroxide, 30 minutes, LB
Method: as §1
To test if these strains would report on activation of the OxyR-controlled oxidative stress response, each was treated with hydrogen peroxide at 0.016, 0.008, 0.004, 0.002, 0.001, 0.0005, 0.00025%.

[8] = system: ahpC-luxCDABE fusions in E. coli host strain DPD2228 (pcnB80); settings: for H2O2 response ratio in pcnB- host: 0.002% hydrogen peroxide, 30 minutes, LB
Method: as §1

[9] = lux-a.pk054.c3 (DPD2243), clpB fusion
[10] = 1pxA 1pxB rnhB dnaE fusion (lux-a.pk061.c3)
[11] = dinG ybiB fusion (lux-a.pk0024.f5)
[12] = lacZ fusion (65.d4), negative control
[13] = yciG fusion (lux-a.pk006.b4), negative control

For `CCO` [Ethanol, ethanol], the “3% Ethanol Response ratio” value ([1]; clpB fusion, DPD2243 (lux-a.pk054.c3)) was 4.7, the “bioluminescence compared with untreated culture” value ([1]; each of the six heat shock fusion strains, at least two of 5, 4, 3, 2 (v/v)% ethanol) was “increased bioluminescence” and the “3% Ethanol Response ratio” value ([1]; grpE fusion, DPD2241 (lux-a.pk057.h1)) was 5.2. The “3% Ethanol Response ratio” value ([1]; lon fusion, DPD2242 (lux-a.pk021.g11)) was 5.6, the “3% Ethanol Response ratio” value ([1]; rfaDFCL fusion, DPD2244 (lux-a.pk040.e4)) was 1.4 and the “3% Ethanol Response ratio” value ([1]; rpoD fusion, DPD2246 (lux-a.pk089.e7)) was 2.4. For the same molecule, the “Response Ratio” value ([2]; Inverted lux-a.pk043.d3 (two transformants)) was 6.5 and 5.5, the “Light production in LB + 4% ethanol” value ([2]; lux-a.pk043.d3 (clpB promoter not operably linked)) was 0.0025 RLU and the “Response Ratio” value [2, 9] was 9.4. For the same molecule, the “Light production in LB + 4% ethanol” value [2, 9] was 13.00 RLU and the “bioluminescence of SOS regulon gene fusions (specificity)” value (SOS regulon gene fusions) was “little to no increased biolumninescence”.

For `CO[C@@]12[C@H](COC(N)=O)C3=C(C(=O)C(C)=C(N)C3=O)N1C[C@@H]1N[C@@H]12` [MMC, mitomycin C], the “MitC Ratio, 2 hr 250 ng/ml” value [3, 10] was 1.06, the “MitC Ratio, 2 hr 250 ng/ml” value ([3]; b1728 fusion (lux-a.pk033.c5)) was 8.97 and the “MitC Ratio, 2 hr 250 ng/ml” value ([3]; b1936 fusion (lux-a.pk0019.g1)) was 1.22. For the same molecule, the “MitC Ratio, 2 hr 250 ng/ml” value [3, 11] was 5.01, the “MitC Ratio, 2 hr 250 ng/ml” value ([3]; fusion (lux-a.pk0015.d6)) was 1.12 and the “MitC Ratio, 2 hr 250 ng/ml” value [3, 12] was 0.80. For the same molecule, the “induction of b1728 promoter-luxCDABE fusion” value ([3]; lexA+ host (FIG. 9)) was “clearly induced”, the “MitC Ratio, 2 hr 250 ng/ml” value ([3]; oraA fusion (lux-a.pk058.f5)) was 15.27 and the “MitC Ratio, 2 hr 250 ng/ml” value ([3]; yaaF fusion (lux-a.pk031.e7)) was 1.02. The “MitC Ratio, 2 hr 250 ng/ml” value [3, 13] was 0.56, the “MitC Ratio, 2 hr 250 ng/ml” value ([3]; yigN fusion (lux-a.pk046.f11)) was 9.84 and the “MitC Ratio, 2 hr 250 ng/ml” value [4, 10] was 1.29. The “MitC Ratio, 2 hr 250 ng/ml” value ([4]; b1728 fusion (lux-a.pk033.c5)) was 0.90, the “MitC Ratio, 2 hr 250 ng/ml” value ([4]; b1936 fusion (lux-a.pk0019.g1)) was 2.46 and the “MitC Ratio, 2 hr 250 ng/ml” value [4, 11] was 1.15. For the same molecule, the “MitC Ratio, 2 hr 250 ng/ml” value ([4]; fusion (lux-a.pk0015.d6)) was 1.73, the “MitC Ratio, 2 hr 250 ng/ml” value [4, 12] was 1.24 and the “induction of b1728 promoter-luxCDABE fusion” value ([4]; lexAind host strain (FIG. 9)) was “not induced”. For the same molecule, the “MitC Ratio, 2 hr 250 ng/ml” value ([4]; oraA fusion (lux-a.pk058.f5)) was 1.21, the “MitC Ratio, 2 hr 250 ng/ml” value ([4]; yaaF fusion (lux-a.pk031.e7)) was 0.99 and the “MitC Ratio, 2 hr 250 ng/ml” value [4, 13] was 0.61. For the same molecule, the “MitC Ratio, 2 hr 250 ng/ml” value ([4]; yigN fusion (lux-a.pk046.f11)) was 0.93, the “Induction of Fusion” value ([5]; b1847 (yebF)-luxCDABE fusion (when inverted), MMC) was “YES” and the “Induction of Fusion” value ([5]; b1847 (yebF)-luxCDABE fusion (when inverted), MMC, listed as mitomycin C) was “induction by mitomycin C was demonstrated”. The “Induction of Fusion” value ([5]; dinB (dinP)-luxCDABE fusion, several doses of MMC, time course of 100 minutes) was “YES”, the “Induction of Fusion” value ([5]; dinF-luxCDABE fusion, MMC) was “YES” and the “Induction of Fusion” value ([5]; dinG-luxCDABE fusion, MMC) was “YES”. For the same molecule, the “Induction of Fusion” value ([5]; recA-luxCDABE fusion, several doses of MMC, time course of 100 minutes) was “YES”, the “Induction of Fusion” value ([5]; ruvA-luxCDABE fusion, several doses of MMC, time course of 100 minutes) was “YES” and the “Induction of Fusion” value ([5]; uvrA-luxCDABE fusion, several doses of MMC, time course of 100 minutes) was “YES”. The “Induction of Fusion” value ([5]; uvrD-luxCDABE fusion, MMC) was “YES”.

For `C[n+]1ccc(-c2cc[n+](C)cc2)cc1` [Methyl viologen, methyl viologen], the “bioluminescence compared with untreated culture” value ([6]; each of four SoxR/S fusion strains, each of 1000, 500, 250, 125, 62, 31 and 16 μg/ml) was “induced increased bioluminescence”, the “Methyl viologen response ratio” value ([6]; inaA fusion, DPD2087 (lux-a.pk014.a9)) was 9.0 and the “Methyl viologen response ratio” value ([6]; poxB fusion, DPD3509 (lux-a.pk071.all)) was 15.0. The “Methyl viologen response ratio” value ([6]; ribA fusion, DPD2286 (lux-a.pk078.d2)) was 4.7 and the “Methyl viologen response ratio” value ([6]; zwf fusion, DPD2272 (lux-a.pk082.g7)) was 3.6.

Work on `OO` [H2O2, hydrogen peroxide] yielded an H2O2 response ratio ([7]; DPD2283 (lux-a.pk051.d5)) of 1.3, an H2O2 response ratio ([7]; DPD2284 (lux-a.pk051.e3)) of 1.6 and an H2O2 response ratio ([7]; DPD2285 (lux-a.pk03.d6)) of 1.2. For the same molecule, the induction of bioluminescence ([7]; three ahpC-luxCDABE strains, 0.016-0.00025% hydrogen peroxide) was “minimally induced”, the induction of bioluminescence ([8]; both ahpC-luxCDABE strains in pcnB- host, each of seven conc 0.004-0.00006%) was “dramatically induced increased bioluminescence” and the “H2O2 response ratio in pcnB- host” value ([8]; plasmid of DPD2283 (lux-a.pk051.d5) in DPD2228) was 16.5. For the same molecule, the “H2O2 response ratio in pcnB- host” value ([8]; plasmid of DPD2284 (lux-a.pk051.e3) in DPD2228) was 15.3.
